{"source": "paper PMC9545474", "about": "“Anticancer Water‐Soluble Organoruthenium Complexes: Synthesis and Preclinical Evaluation” (Chembiochem, 2022)", "key": {"[1]": {"tested_on": "PNT2 non-cancerous human prostate cells", "test": "24-hour MTT chemosensitivity assay with 72-hour recovery, PNT2", "type": "cell-based", "settings": "24 h exposure, 72 h recovery, MTT; read-out: IC50 values ±SD, PNT2", "description": "(§1) Chemosensitivity studies were undertaken using a 24‐hour MTT assay, with a 72‐hour recovery period. The IC50 values were determined against ovarian A2780 (cisplatin‐sensitive) and A2780cisR (cisplatin‐resistant) cancer cell lines, non‐small‐cell lung H460 cancer cell line, and normal prostate PNT2 cell line, exposed to each of compounds 4–8, cisplatin or the phosphine ligands (Table 1 and S4, Figures S29–S31). […] This is unusual but can be related to solubility issues not visible for the naked eye and thus hindering its activity in cells. […] When tested on their own, the phosphine ligands are not active below 100 μM for all four cell lines. […] This therefore prevents comparison with the well‐known RAPTA family, and more especially with RAPTA−C which bears a PTA ligand and a p‐cym ligand, making this complex relatively similar in terms of geometry with complex 4.[21] […] This confirms the interest of the sulfur coordinating atom in terms of cytotoxicity for organoruthenium complexes.[23]\n(§2) Chemosensitivity assay: In vitro chemosensitivity tests were performed against A2780, A2780cisR, PNT2 and H460 cells. Cells were routinely maintained as monolayer cultures in RPMI 1640 medium supplemented with 10 % foetal calf serum, penicillin (100 I.U./mL) and streptomycin (100 μg/mL), sodium pyruvate (1 mM) and L‐glutamine (2 mM). For chemosensitivity studies, cells were seeded in 96‐well plates at a concentration of 7.5×10^3 cells per well and the plates were incubated for 24 h at 37 °C and a 5 % CO2 humidified atmosphere prior to drug exposure.\n(§3) Complexes were dissolved in either DMSO (complexes 4, 5, and 8) or PBS (complexes 6 and 7) to provide stock solutions which were further diluted with media to provide a range of final concentrations. Drug‐media solutions were added to cells (the final concentration of DMSO was less than 1 % (v/v) in all cases) and incubated for 24 h at 37 °C and a 5 % CO2 humidified atmosphere. The drug‐media solution was removed from the wells and the cells were washed with PBS (100 μL, twice) and 200 μL of complete fresh media were added to each well. The plates were further incubated for 72 h at 37 °C and a 5 % CO2 humidified atmosphere to allow for a period of recovery. 3‐(4,5‐dimethylthiazol‐2‐yl)‐2,5‐diphenyltetrazolium bromide (MTT) (40 μL, 2.5 mg/mL) was added to each well and plates were incubated for 2 h. All solutions were then removed and 100 μL of DMSO was added to each well in order to dissolve the purple formazan crystals. A Thermo Scientific Multiskan EX microplate photometer was used to measure the absorbance in each well at 570 nm. Cell survival was determined as the absorbance of treated cells divided by the absorbance of controls and expressed as a percentage. The IC50 values were determined from plots of % survival against drug concentration. Each experiment was repeated in triplicates of triplicates and a mean value was obtained and stated as IC50 (μM) ± SD. Untreated cells were used as a negative control, and cells treated with cisplatin were used as a positive control."}, "[2]": {"test": "Precipitation in drug-medium solutions", "type": "physicochemical"}, "[3]": {"tested_on": "H460 non-small-cell lung cancer cells", "test": "24-hour MTT chemosensitivity assay with 72-hour recovery, H460", "type": "cell-based", "settings": "for IC50: 24 h exposure, 72 h recovery, MTT, read-out: IC50 values ±SD, H460", "description": "as §1, §2, §3"}, "[4]": {"tested_on": "A2780 ovarian cancer cells", "test": "24-hour MTT chemosensitivity assay with 72-hour recovery, A2780", "type": "cell-based, human", "settings": "for IC50: 24 h exposure, 72 h recovery, MTT, read-out: IC50 values ±SD, A2780", "description": "as §1, §2, §3"}, "[5]": {"tested_on": "A2780cisR cisplatin-resistant ovarian cancer cells", "test": "24-hour MTT chemosensitivity assay with 72-hour recovery, A2780cisR", "type": "cell-based, human", "settings": "for IC50: 24 h exposure, 72 h recovery, MTT, read-out: IC50 values ±SD, A2780cisR", "description": "as §1, §2, §3"}, "MCF-7 cell line": {"tested_on": "MCF-7 cell line", "design": "method as in PMID 27357845", "settings": "read-out: EC50 against MCF-7 cell line; cited from earlier work"}, "A2780 cells": {"tested_on": "A2780 cells", "test": "JC-10 mitochondrial membrane potential assay by flow cytometry", "type": "cell-based, human", "settings": "A2780, 24 h, complexes at IC50, cisplatin 6.5 µM", "excerpt": "A membrane potential sensitive fluorescent probe JC‐10 was used to determine whether the apoptosis induced by complexes 6 and 8 is accompanied by changes in the mitochondrial membrane potential (ΔΨm) of A2780 cells. JC‐10 aggregates inside mitochondria and emits orange fluorescence. Following membrane […], JC‐10 is disaggregated and this in turn reduces the orange fluorescence.\nFigure 8 Effect of complexes 6 and 8 on the mitochondrial membrane potential. […] The percentages of cells with depolarised mitochondrial membrane potential were assessed by flow cytometry after staining with JC‐10. The data are expressed as the means±SD of the three individual experiments.\nMitochondrial membrane potential assay: Analysis of the changes of mitochondrial potential in A2780 cells after exposure to complexes 6 and 8 was carried out using the JC‐10 mitochondrial membrane potential assay kit (abcam®) according to the manufacturer's instructions. Briefly, 1.0×10^6 cells per well were seeded in a 6‐well plate and incubated for 24 at 37 °C and a 5 % CO2 humidified atmosphere. […] Supernatants were removed by suction, and each well was washed with PBS before detaching the cells using trypsin. Staining of the samples was done in tubes protected from light, incubating for 30 min in the dark at room temperature. Samples were immediately analysed on a BD Accuri C6 Plus System Flow Cytometer, reading the reduction of fluorescence in the FL2 channel."}, "[6]": {"tested_on": "A2780 ovarian cancer cells", "design": "method as in PMID 32237195", "settings": "read-out: IC50 values ±SD, A2780; cited from earlier work"}, "[7]": {"tested_on": "H460 non-small-cell lung cancer cells", "design": "method as in PMID 32237195", "settings": "read-out: IC50 values ±SD, H460; cited from earlier work"}, "[8]": {"tested_on": "A2780cisR cisplatin-resistant ovarian cancer cells", "design": "method as in PMID 32237195", "settings": "read-out: IC50 values ±SD, A2780cisR; cited from earlier work"}, "[9]": {"tested_on": "non-immortalised lymphocytes", "design": "method as in PMID 33119178", "settings": "cited from earlier work"}, "[10]": {"tested_on": "ovarian, colon, and lung cancer cell lines", "design": "method as in PMID 32237195", "settings": "some ovarian; cited from earlier work"}}, "note": "Like-named read-outs stand apart in the source and are kept apart here."}
{"molecule": "Cc1ccc(C(C)C)cc1.N#CC1=C(C#N)[S][Ru-]([P+]23CN4CN(CN(C4)C2)C3)[S]1", "note": "[Complex 4, (η^6‐p‐cymene)(PTA)Ru(Mnt)]", "values": [{"measurement": "IC50", "setting": "[1]", "value": "≥ 50", "unit": "µM"}, {"measurement": "Concentration above which the complex precipitates", "setting": "[2]", "value": "higher than 50 μM"}, {"measurement": "IC50", "setting": "[3]", "value": "≥ 50", "unit": "µM"}, {"measurement": "IC50", "setting": "[4]", "value": "≥ 50", "unit": "µM"}, {"measurement": "IC50", "setting": "[5]", "value": "≥ 50", "unit": "µM"}]}
{"molecule": "Cc1ccc(C(C)C)cc1.[Cl][Ru-]1[O][n+]2ccccc2[S]1", "note": "[[(η^6‐p‐cymene)Ru(pyrithionato)Cl]]", "values": [{"measurement": "EC50", "setting": "MCF-7 cell line", "value": "3.81 ± 0.06", "unit": "µM"}]}
{"molecule": "N.N.[Cl][Pt][Cl]", "note": "[Cisplatin, reference compound]", "values": [{"measurement": "IC50", "setting": "[1]", "value": "12 ± 0.7", "unit": "µM"}, {"measurement": "IC50", "setting": "[3]", "value": "4.5 ± 0.2", "unit": "µM"}, {"measurement": "Selectivity index (SI), H460", "setting": "[3]; mean IC50 PNT2 / mean IC50 H460", "value": 2.67}, {"measurement": "% cell population with high orange fluorescence", "setting": "A2780 cells; Experiment 1", "value": 88.9, "unit": "%"}, {"measurement": "% cell population with low orange fluorescence", "setting": "A2780 cells; Experiment 1", "value": 11.1, "unit": "%"}, {"measurement": "% cell population with high orange fluorescence", "setting": "A2780 cells; Experiment 2", "value": 87, "unit": "%"}, {"measurement": "% cell population with low orange fluorescence", "setting": "A2780 cells; Experiment 2", "value": 13.0, "unit": "%"}, {"measurement": "% cell population with high orange fluorescence", "setting": "A2780 cells; Experiment 3", "value": 82.1, "unit": "%"}, {"measurement": "% cell population with low orange fluorescence", "setting": "A2780 cells; Experiment 3", "value": 17.9, "unit": "%"}, {"measurement": "% cell population with high orange fluorescence", "setting": "A2780 cells; Summary, mean values ± SD", "value": "86 ± 3.5", "unit": "%"}, {"measurement": "IC50", "setting": "[4]", "value": "6.5 ± 0.4", "unit": "µM"}, {"measurement": "Selectivity index (SI), A2780", "setting": "[4]; mean IC50 PNT2 / mean IC50 A2780", "value": 1.85}, {"measurement": "IC50", "setting": "[5]", "value": "18 ± 0.6", "unit": "µM"}, {"measurement": "Selectivity factor (cross-resistance, resistance factor RF)", "setting": "[5]; IC50 A2780cisR / IC50 A2780", "value": 2.8}, {"measurement": "Selectivity index (SI), A2780cisR", "setting": "[5]; mean IC50 PNT2 / mean IC50 A2780cisR", "value": 0.67}]}
{"molecule": "Cc1ccc(C(C)C)cc1.N#CC1=C(C#N)[S][Ru][S]1", "note": "[Complex 3, [(η^6‐p‐cymene)Ru(Mnt)]]", "values": [{"measurement": "IC50", "setting": "[6]", "value": "0.5 ± 0.04", "unit": "µM"}, {"measurement": "IC50", "setting": "[7]", "value": "0.8 ± 0.1", "unit": "µM"}, {"measurement": "IC50", "setting": "[8]", "value": "0.32 ± 0.15", "unit": "µM"}, {"measurement": "Toxicity against non-immortalised lymphocytes from healthy individuals", "setting": "[9]", "value": "absence of toxicity"}, {"measurement": "Potency relative to cisplatin", "setting": "[10]", "value": "5 to 60", "unit": "×"}]}
